Reference: the Kinase Knowledgebase extract (Sharma et al. 2016)

Assays:
PIK3CA (human) [1] = target: PIK3CA (human) (UniProt P42336); assay: Assessment of PIK3CA Kinase Activity Using Homogenous Solution Phase Assay
PIK3CA (human) [2] = target: PIK3CA (human) (UniProt P42336); assay: Assessment of PIK3CA Kinase Activity Using One Step Solid Phase Assay

PIK3CA (human), sequence (P42336 whole entry, looked up): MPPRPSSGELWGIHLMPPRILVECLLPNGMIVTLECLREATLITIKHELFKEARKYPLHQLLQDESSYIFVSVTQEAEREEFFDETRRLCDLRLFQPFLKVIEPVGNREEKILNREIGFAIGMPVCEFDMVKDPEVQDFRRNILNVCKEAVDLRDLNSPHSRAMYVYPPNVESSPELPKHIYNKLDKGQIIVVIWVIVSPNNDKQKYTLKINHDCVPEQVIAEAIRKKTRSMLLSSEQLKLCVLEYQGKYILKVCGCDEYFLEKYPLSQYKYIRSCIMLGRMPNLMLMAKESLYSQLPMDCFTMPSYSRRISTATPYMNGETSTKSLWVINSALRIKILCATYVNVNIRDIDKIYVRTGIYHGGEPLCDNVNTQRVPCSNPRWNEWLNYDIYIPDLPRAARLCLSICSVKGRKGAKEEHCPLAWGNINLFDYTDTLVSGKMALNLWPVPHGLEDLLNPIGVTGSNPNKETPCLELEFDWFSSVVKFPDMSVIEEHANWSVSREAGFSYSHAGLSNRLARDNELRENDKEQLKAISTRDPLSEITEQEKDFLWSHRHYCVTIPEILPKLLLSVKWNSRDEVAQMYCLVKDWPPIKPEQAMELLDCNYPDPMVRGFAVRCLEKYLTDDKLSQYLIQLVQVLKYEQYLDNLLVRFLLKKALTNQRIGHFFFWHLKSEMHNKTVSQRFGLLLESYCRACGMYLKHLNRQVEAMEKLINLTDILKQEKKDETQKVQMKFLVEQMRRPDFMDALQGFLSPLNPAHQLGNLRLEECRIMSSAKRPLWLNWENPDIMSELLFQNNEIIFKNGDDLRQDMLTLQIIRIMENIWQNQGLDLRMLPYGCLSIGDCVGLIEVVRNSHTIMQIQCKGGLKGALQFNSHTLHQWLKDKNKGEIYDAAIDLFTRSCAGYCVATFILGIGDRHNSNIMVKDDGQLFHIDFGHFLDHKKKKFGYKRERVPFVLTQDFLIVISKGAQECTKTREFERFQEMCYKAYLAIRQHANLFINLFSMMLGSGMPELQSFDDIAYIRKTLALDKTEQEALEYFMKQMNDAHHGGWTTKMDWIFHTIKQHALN

SMILES | IC50 (PIK3CA (human) [1]) [µM] | IC50 (PIK3CA (human) [2]) [µM]
CC(C)(C)C(=O)Oc1cccc(-c2cc(Nc3cccnc3)nc(N3CCOCC3)n2)c1 | < 20 | < 20
Oc1cccc(-c2cc(NCc3ccccn3)nc(N3CCOCC3)n2)c1 | < 20 | < 20
